Reference: US20170152245A1 (National Taiwan University, priority 2015, published 2017)

Test system: human platelet suspension
Assay: U46619-induced platelet aggregation in human platelet suspension
Format: cell-based
Conditions: Homo sapiens, Platelet, U46619-induced aggregation, platelet suspension; read-out: P.S(U46619) IC50
Procedure: Human platelet suspension (PS) was prepared according to the method described previously. Briefly, blood sample, freshly obtained from healthy volunteers who had taken no medications during the preceding 2 weeks, was treated with acid citrate/dextrose (ACD) in a volume ratio of 9:1. After centrifugation at 120 g, 25° C. for 9 min, platelet-rich plasma was transferred into another plastic tube and incubated with heparin (6.4 U/ml) as well as prostaglandin E1 (1 μM). Platelets were spun down by centrifugation at 500 g, 25° C. for 8 min and subsequently washed two times with Tyrode solution (NaH2PO4 0.4 mM; NaCl 136.9 mM; KCl […]; NaHCO3 11.9 mM; CaCl2 2 mM; MgCl2 2.1 mM; glucose 11.1 mM; BSA 3.5 mg/ml; pH 7.35-7.4). The washed platelets were finally suspended in Tyrode's solution and the platelet count was adjusted to 3.75×10^8 platelets/ml. For platelet-rich plasma (PRP) preparation, whole blood was anticoagulated with 1/10 vol of sodium citrate (3.8%, w/v) and centrifuged at 150 g, 25° C. for 9 min.
Platelet aggregation was measured turbidimetrically with a Lumi-aggregometer (Payton Scientific) at 37° C. under stirring condition (900 rpm). Platelet suspensions were prewarmed to 37° C. for 2 min in a silicone-treated glass cuvette. Nstpbp5185 was added 3 min before the addition of platelet-aggregation inducers. The extent of platelet aggregation was determined by recording the increase of light transmission relative to that of control (maximal aggregation, as 100%) for 6 min after the addition of inducer. The final volume and platelet count for measuring platelet aggregation were 500 μl and 3×10^8/ml, respectively.

Compound | IC50 [µM]
Cc1ccc(-c2nc3ccccc3n2Cc2ccccc2F)o1 [Example 13, 1-(o-Fluorobenzyl)-2-(5-methyl-2-furyl)benzimidazole] | 13.1
Cc1ccc(-c2nc3ccccc3n2Cc2ccccn2)o1 [Example 22, 1-(2-Picoyl)-2-(5-methyl-2-furyl)benzimidazole] | 4.29
Cc1ccc(-c2nc3ccccc3n2Cc2cccnc2)o1 [Example 23, 1-(3-Picoyl)-2-(5-methyl-2-furyl)benzimidazole] | 3.01
Cc1ccc(-c2nc3ccccc3n2Cc2ccncc2)o1 [Example 24, 1-(4-Picoyl)-2-(5-methyl-2-furyl)benzimidazole] | 14.6
COc1ccc2[nH]c(-c3ccc(C)o3)nc2c1 [Example 25, 5-Methoxy-2-(5-methyl-2-furyl)benzimidazole] | 44.5
COc1ccc2nc(-c3ccc(C)o3)n(Cc3ccccc3)c2c1 [Example 25a, 1-benzyl-6-methoxy-2-(5-methyl-2-furyl)benzimidazole] | 1.45
COc1ccc2c(c1)nc(-c1ccc(C)o1)n2Cc1ccccc1 [Example 25b, 1-benzyl-5-methoxy-2-(5-methyl-2-furyl)benzimidazole] | 3.3
COc1ccc2nc(-c3ccc(C)o3)n(Cc3cccc(C)c3)c2c1 [Example 27a, 6-methoxy-1-(3-methylbenzyl)-2-(5-methyl-2-furyl)benzimidazole] | 19.2
COc1ccc2c(c1)nc(-c1ccc(C)o1)n2Cc1cccc(C)c1 [Example 27b, 5-methoxy-1-(3-methylbenzyl)-2-(5-methyl-2-furyl)benzimidazole] | 26.9
Cc1ccc2[nH]c(-c3ccc(C)o3)nc2c1 [Example 29, 5-methyl-2-(5-methyl-2-furyl)benzimidazole] | 33.7
Cc1ccc(-c2nc3cc(F)ccc3[nH]2)o1 [Example 30] | 52.1
Cc1ccc(-c2nc3ccc(F)cc3n2Cc2ccccc2)o1 [Example 30a, 1-benzyl-6-fluoro-2-(5-methyl-2-furyl)benzimidazole] | 6.79
Cc1ccc(-c2nc3cc(F)ccc3n2Cc2ccccc2Cl)o1 [Example 31a, 5-fluoro-1-(2-chlorobenzyl)-2-(5-methyl-2-furyl)benzimidazole] | 22.7
Cc1ccc(-c2nc3ccc(F)cc3n2Cc2ccccc2Cl)o1 [Example 31b, 6-fluoro-1-(2-chlorobenzyl)-2-(5-methyl-2-furyl)benzimidazole] | 12.7
Cc1ccc(-c2nc3cc(F)ccc3n2Cc2cccc(Cl)c2)o1 [Example 32a, 5-fluoro-1-(3-chlorobenzyl)-2-(5-methyl-2-furyl)benzimidazole] | 4.26
Cc1ccc(-c2nc3ccc(F)cc3n2Cc2cccc(Cl)c2)o1 [Example 32b, 6-fluoro-1-(3-chlorobenzyl)-2-(5-methyl-2-furyl)benzimidazole] | 3.09
COc1ccc(Cn2c(-c3ccc(C)o3)nc3cc(F)ccc32)cc1 [Example 34a, 5-fluoro-1-(4-methoxybenzyl)-2-(5-methyl-2-furyl)benzimidazole] | 34.5

Compound | IC50 [µM]
COc1ccc(Cn2c(-c3ccc(C)o3)nc3ccc(F)cc32)cc1 [Example 34b, 6-fluoro-1-(4-methoxybenzyl)-2-(5-methyl-2-furyl)benzimidazole] | 32.2
Cc1ccc(-c2nc3cc(F)ccc3n2Cc2cccc(F)c2)o1 [Example 37a, 5-fluoro-1-(3-fluorobenzyl)-2-(5-methyl-2-furyl)benzimidazole] | 1.7
Cc1ccc(-c2nc3ccc(F)cc3n2Cc2cccc(F)c2)o1 [Example 37b, 6-fluoro-1-(3-fluorobenzyl)-2-(5-methyl-2-furyl)benzimidazole] | 1.17
Cc1ccc(-c2nc3cc(F)ccc3n2Cc2ccccc2F)o1 [Example 38a, 5-fluoro-1-(2-fluorobenzyl)-2-(5-methyl-2-furyl)benzimidazole] | 4.14
Cc1ccc(-c2nc3ccc(F)cc3n2Cc2ccccc2F)o1 [Example 38b, 6-Fluoro-1-(2-fluorobenzyl)-2-(5-methyl-2-furyl)benzimidazole] | 2.7
Cc1cccc(Cn2c(-c3ccc(C)o3)nc3cc(F)ccc32)c1 [Example 40a, 5-fluoro-1-(3-methylbenzyl)-2-(5-methyl-2-furyl)benzimidazole] | 14.6
Cc1cccc(Cn2c(-c3ccc(C)o3)nc3ccc(F)cc32)c1 [Example 40b, 6-Fluoro-1-(3-methylbenzyl)-2-(5-methyl-2-furyl)benzimidazole] | 5.39
Cc1ccc(-c2nc3cc(F)ccc3n2Cc2ccccc2C)o1 [Example 41a, 5-fluoro-1-(2-methylbenzyl)-2-(5-methyl-2-furyl)benzimidazole] | 2.61
Cc1ccc(-c2nc3ccc(F)cc3n2Cc2ccccc2C)o1 [Example 41b, 6-fluoro-1-(2-methylbenzyl)-2-(5-methyl-2-furyl)benzimidazole] | 2.38
Cc1ccc(-c2nc3cc(Cl)ccc3[nH]2)o1 [Example 42] | 37.3
Cc1ccc(-c2nc3ccc(Cl)cc3n2Cc2ccccc2)o1 [Example 42a, 1-benzyl-6-chloro-2-(5-methyl-2-furyl)benzimidazole] | 3.55
Cc1ccc(-c2nc3cc(Cl)ccc3n2Cc2ccccc2)o1 [Example 42b, 1-benzyl-5-chloro-2-(5-methyl-2-furyl)benzimidazole] | 4.43
Cc1ccc(-c2nc3ccc(Cl)cc3n2Cc2ccc(Cl)cc2)o1 [Example 43a, 6-chloro-1-(4-chlorobenzyl)-2-(5-methyl-2-furyl) benzimidazole] | 36.5
Cc1ccc(-c2nc3cc(Cl)ccc3n2Cc2ccc(Cl)cc2)o1 [Example 43b, 5-chloro-1-(4-chlorobenzyl)-2-(5-methyl-2-furyl)benzimidazole] | 127
Cc1ccc(-c2nc3cc(Cl)ccc3n2Cc2cccc(Cl)c2)o1 [Example 44a, 5-chloro-1-(3-chlorobenzyl)-2-(5-methyl-2-furyl)benzimidazole] | 9.74
Cc1ccc(-c2nc3ccc(Cl)cc3n2Cc2cccc(Cl)c2)o1 [Example 44b, 6-chloro-1-(3-chlorobenzyl)-2-(5-methyl-2-furyl)benzimidazole] | 3.1

Continued, values first:

IC50 [µM] | Compound
46.3 | Cc1ccc(-c2nc3cc(Cl)ccc3n2Cc2ccccc2Cl)o1 [Example 45a, 5-chloro-1-(2-chlorobenzyl)-2-(5-methyl-2-furyl)benzimidazole]
7.52 | Cc1ccc(-c2nc3ccc(Cl)cc3n2Cc2ccccc2Cl)o1 [Example 45b, 6-chloro-1-(2-chlorobenzyl)-2-(5-methyl-2-furyl)benzimidazole]
3.13 | Cc1ccc(-c2nc3ccc(Cl)cc3n2Cc2ccc(F)cc2)o1 [Example 46a, 6-chloro-1-(4-fluorobenzyl)-2-(5-methyl-2-furyl)benzimidazole]
9.59 | Cc1ccc(-c2nc3cc(Cl)ccc3n2Cc2ccc(F)cc2)o1 [Example 46b, 5chloro-1-(4-fluorobenzyl)-2-(5-methyl-2-furyl)benzimidazole]
5.55 | Cc1ccc(-c2nc3cc(Cl)ccc3n2Cc2cccc(F)c2)o1 [Example 47a, 5-chloro-1-(3-fluorobenzyl)-2-(5-methyl-2-furyl)benzimidazole]
4.42 | Cc1ccc(-c2nc3ccc(Cl)cc3n2Cc2cccc(F)c2)o1 [Example 47b, 6-chloro-1-(3-fluorobenzyl)-2-(5-methyl-2-furyl)benzimidazole]
6.7 | Cc1ccc(-c2nc3cc(Cl)ccc3n2Cc2ccccc2F)o1 [Example 48a, 5-chloro-1-(2-fluorobenzyl)-2-(5-methyl-2-furyl)benzimidazole]
3.11 | Cc1ccc(-c2nc3ccc(Cl)cc3n2Cc2ccccc2F)o1 [Example 48b, 6-chloro-1-(2-fluorobenzyl)-2-(5-methyl-2-furyl)benzimidazole]
29.6 | COc1ccc(Cn2c(-c3ccc(C)o3)nc3ccc(Cl)cc32)cc1 [Example 49b, 6-chloro-1-(4-methoxybenzyl)-2-(5-methyl-2-furyl)benzimidazole]
38 | COc1cccc(Cn2c(-c3ccc(C)o3)nc3cc(Cl)ccc32)c1 [Example 50a, 5-chloro-1-(3-methoxybenzyl)-2-(5-methyl-2-furyl)benzimidazole]
27.4 | COc1cccc(Cn2c(-c3ccc(C)o3)nc3ccc(Cl)cc32)c1 [Example 50b, 6-chloro-1-(3-methoxybenzyl)-2-(5-methyl-2-furyl)benzimidazole]
53.4 | Cc1ccc(Cn2c(-c3ccc(C)o3)nc3ccc(Cl)cc32)cc1 [Example 51a, 6-chloro-1-(4-methylbenzyl)-2-(5-methyl-2-furyl)benzimidazole]
62.8 | Cc1ccc(Cn2c(-c3ccc(C)o3)nc3cc(Cl)ccc32)cc1 [Example 51b, 5-chloro-1-(4-methylbenzyl)-2-(5-methyl-2-furyl)benzimidazole]
29.9 | Cc1cccc(Cn2c(-c3ccc(C)o3)nc3cc(Cl)ccc32)c1 [Example 52a, 5-chloro-1-(3-methylbenzyl)-2-(5-methyl-2-furyl)benzimidazole]
5.22 | Cc1cccc(Cn2c(-c3ccc(C)o3)nc3ccc(Cl)cc32)c1 [Example 52b, 6-chloro-1-(3-methylbenzyl)-2-(5-methyl-2-furyl)benzimidazole]
